Source: the supplement of paper PMC10307832

Key:
Test in all cases: relative viability (nuclei count vs DMSO), 5 days (fraction); higher = more cells survive
Trametinib + Foretinib = compound: CC(=O)Nc1cccc(-n2c(=O)n(C3CC3)c(=O)c3c(Nc4ccc(I)cc4F)n(C)c(=O)c(C)c32)c1 [Trametinib] + COc1cc2c(Oc3ccc(NC(=O)C4(C(=O)Nc5ccc(F)cc5)CC4)cc3F)ccnc2cc1OCCCN1CCOCC1 [Foretinib] (partner 0.25 µM)
How it was run: (§1)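 Medians of duplicate plates are given as relative viability. That measure is the nuclei count in treated wells divided by the count in vehicle wells. Counts were taken on 4× images of lung cancer cell lines in 1536-well plates, 5 days after pin-tool dosing the day after seeding with one drug alone or a fixed anchor-drug dose plus five library-drug doses (not always all listed) in √10 steps.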

Trametinib + AZD7762 = compound: CC(=O)Nc1cccc(-n2c(=O)n(C3CC3)c(=O)c3c(Nc4ccc(I)cc4F)n(C)c(=O)c(C)c32)c1 [Trametinib] + NC(=O)Nc1cc(-c2cccc(F)c2)sc1C(=O)N[C@H]1CCCNC1 [AZD7762] (partner 0.2 µM)
How it was run: as §1

[1] = compound: CN1C=C(C2=CC=CC=C21)/C=C\3/C4=C(C=CC=N4)NC3=O + CS(=O)(=O)CCNCc1ccc(-c2ccc3ncnc(Nc4ccc(OCc5cccc(F)c5)c(Cl)c4)c3c2)o1 [Lapatinib] (partner 2 µM)
How it was run: as §1

[2] = compound: CN1C=C(C2=CC=CC=C21)/C=C\3/C4=C(C=CC=N4)NC3=O + CC(C)C[C@H](NC(=O)[C@H](Cc1ccccc1)NC(=O)c1cnccn1)B(O)O [Bortezomib] (partner 0.002 µM)
How it was run: as §1

**Q.** For PC-3 [JPC-3], which relative viability (Trametinib + Foretinib; first compound 0.0025 µM) is on record?
**A.** 1

**Q.** What about the relative viability (Trametinib + Foretinib; first compound 0.007906 µM) of the same cell line?
**A.** 0.969

**Q.** And the relative viability (Trametinib + Foretinib; first compound 0.025 µM)?
**A.** 0.87

**Q.** And the relative viability (Trametinib + Foretinib; first compound 0.07906 µM)?
**A.** 0.709

**Q.** What about the relative viability (Trametinib + Foretinib; first compound 0.25 µM) of the same cell line?
**A.** 0.574

**Q.** And the relative viability (Trametinib + AZD7762; first compound 0.0025 µM)?
**A.** 0.714

**Q.** What about the relative viability (Trametinib + AZD7762; first compound 0.007906 µM) of the same cell line?
**A.** 0.501

**Q.** What about the relative viability (Trametinib + AZD7762; first compound 0.025 µM) of the same cell line?
**A.** 0.506

**Q.** And the relative viability (Trametinib + AZD7762; first compound 0.25 µM)?
**A.** 0.568

**Q.** And the relative viability ([1]; first compound 0.02 µM)?
**A.** 0.405

**Q.** What about the relative viability ([1]; first compound 0.06325 µM) of the same cell line?
**A.** 0.425

**Q.** What about the relative viability ([1]; first compound 0.2 µM) of the same cell line?
**A.** 0.441

**Q.** And the relative viability ([1]; first compound 0.6325 µM)?
**A.** 0.376

**Q.** And the relative viability ([1]; first compound 2 µM)?
**A.** 0.447

**Q.** What about the relative viability ([2]; first compound 0.02 µM) of the same cell line?
**A.** 0.7

**Q.** What about the relative viability ([2]; first compound 0.06325 µM) of the same cell line?
**A.** 0.893

**Q.** What about the relative viability ([2]; first compound 0.2 µM) of the same cell line?
**A.** 0.804

**Q.** What about the relative viability ([2]; first compound 0.6325 µM) of the same cell line?
**A.** 0.838

**Q.** And the relative viability ([2]; first compound 2 µM)?
**A.** 0.761

**Q.** What does the source list for NCI-H596?
**A.** relative viability (Trametinib + Foretinib; first compound 0.0025 µM): 0.793; relative viability (Trametinib + Foretinib; first compound 0.007906 µM): 0.596; relative viability (Trametinib + Foretinib; first compound 0.025 µM): 0.709; relative viability (Trametinib + Foretinib; first compound 0.07906 µM): 0.69; relative viability (Trametinib + Foretinib; first compound 0.25 µM): 0.396; relative viability (Trametinib + AZD7762; first compound 0.0025 µM): 0.942; relative viability (Trametinib + AZD7762; first compound 0.007906 µM): 1.05; relative viability (Trametinib + AZD7762; first compound 0.025 µM): 0.921; relative viability (Trametinib + AZD7762; first compound 0.07906 µM): 0.756; relative viability (Trametinib + AZD7762; first compound 0.25 µM): 0.653; relative viability ([1]; first compound 0.02 µM): 1.05; relative viability ([1]; first compound 0.06325 µM): 1.03; relative viability ([1]; first compound 0.2 µM): 0.889; relative viability ([1]; first compound 0.6325 µM): 1.02; relative viability ([1]; first compound 2 µM): 0.99; relative viability ([2]; first compound 0.02 µM): 0.838; relative viability ([2]; first compound 0.06325 µM): 1.17; relative viability ([2]; first compound 0.2 µM): 1.03; relative viability ([2]; first compound 0.6325 µM): 1.07; relative viability ([2]; first compound 2 µM): 1.02

**Q.** NCI-H460 was tested. Which relative viability (Trametinib + Foretinib; first compound 0.0025 µM) did it give?
**A.** 0.942

**Q.** What about the relative viability (Trametinib + Foretinib; first compound 0.007906 µM) of the same cell line?
**A.** 0.816

**Q.** What about the relative viability (Trametinib + Foretinib; first compound 0.025 µM) of the same cell line?
**A.** 0.549

**Q.** And the relative viability (Trametinib + Foretinib; first compound 0.07906 µM)?
**A.** 0.21

**Q.** And the relative viability (Trametinib + Foretinib; first compound 0.25 µM)?
**A.** 0.11

**Q.** What about the relative viability (Trametinib + AZD7762; first compound 0.0025 µM) of the same cell line?
**A.** 0.731

**Q.** What about the relative viability (Trametinib + AZD7762; first compound 0.007906 µM) of the same cell line?
**A.** 0.751

**Q.** And the relative viability (Trametinib + AZD7762; first compound 0.025 µM)?
**A.** 0.739

**Q.** And the relative viability (Trametinib + AZD7762; first compound 0.07906 µM)?
**A.** 0.505

**Q.** And the relative viability (Trametinib + AZD7762; first compound 0.25 µM)?
**A.** 0.338

**Q.** And the relative viability ([1]; first compound 0.02 µM)?
**A.** 1.11

**Q.** What about the relative viability ([1]; first compound 0.06325 µM) of the same cell line?
**A.** 1.06

**Q.** And the relative viability ([1]; first compound 0.2 µM)?
**A.** 1.09

**Q.** What about the relative viability ([1]; first compound 2 µM) of the same cell line?
**A.** 1.23

**Q.** And the relative viability ([2]; first compound 0.02 µM)?
**A.** 1.23

**Q.** What about the relative viability ([2]; first compound 0.06325 µM) of the same cell line?
**A.** 1.1

**Q.** And the relative viability ([2]; first compound 0.2 µM)?
**A.** 1.07

**Q.** And the relative viability ([2]; first compound 2 µM)?
**A.** 1.14

**Q.** NCI-H647 was tested. Which relative viability (Trametinib + Foretinib; first compound 0.0025 µM) did it give?
**A.** 1.35

**Q.** What about the relative viability (Trametinib + Foretinib; first compound 0.007906 µM) of the same cell line?
**A.** 1.08

**Q.** What about the relative viability (Trametinib + Foretinib; first compound 0.025 µM) of the same cell line?
**A.** 0.963

**Q.** And the relative viability (Trametinib + Foretinib; first compound 0.07906 µM)?
**A.** 0.911

**Q.** And the relative viability (Trametinib + Foretinib; first compound 0.25 µM)?
**A.** 0.4

**Q.** What about the relative viability (Trametinib + AZD7762; first compound 0.0025 µM) of the same cell line?
**A.** 0.543

**Q.** And the relative viability (Trametinib + AZD7762; first compound 0.007906 µM)?
**A.** 0.3

**Q.** And the relative viability (Trametinib + AZD7762; first compound 0.025 µM)?
**A.** 0.262

**Q.** What about the relative viability (Trametinib + AZD7762; first compound 0.07906 µM) of the same cell line?
**A.** 0.174

**Q.** And the relative viability (Trametinib + AZD7762; first compound 0.25 µM)?
**A.** 0.165

**Q.** What about the relative viability ([1]; first compound 0.02 µM) of the same cell line?
**A.** 1.06

**Q.** And the relative viability ([1]; first compound 0.06325 µM)?
**A.** 0.995

**Q.** What about the relative viability ([1]; first compound 0.2 µM) of the same cell line?
**A.** 0.679

**Q.** And the relative viability ([1]; first compound 0.6325 µM)?
**A.** 0.949

**Q.** And the relative viability ([1]; first compound 2 µM)?
**A.** 1.27

**Q.** What about the relative viability ([2]; first compound 0.02 µM) of the same cell line?
**A.** 1.28

**Q.** And the relative viability ([2]; first compound 0.06325 µM)?
**A.** 0.793

**Q.** What about the relative viability ([2]; first compound 0.2 µM) of the same cell line?
**A.** 0.712

**Q.** What about the relative viability ([2]; first compound 0.6325 µM) of the same cell line?
**A.** 0.709

**Q.** What about the relative viability ([2]; first compound 2 µM) of the same cell line?
**A.** 0.958
